Source: the NIST ThermoML archive (doi:10.1021/je050277k)
Numbers after ± are expanded uncertainties.

O=C1CCCCCN1 [1-aza-2-cycloheptanone]
Conditions | vapor or sublimation pressure [kPa]
293.43 K, Crystal, Calculated from knudsen effusion weight loss | 0.000153 ± 9e-06
298.39 K, Crystal, Calculated from knudsen effusion weight loss | 0.000275 ± 1.7e-05
302.3 K, Crystal, Transpiration method | 0.00043 ± 3e-05
303.32 K, Crystal, Calculated from knudsen effusion weight loss | 0.000474 ± 2.9e-05
305.4 K, Crystal, Transpiration method | 0.00066 ± 4e-05
306.2 K, Crystal, Transpiration method | 0.0007 ± 4e-05
308.31 K, Crystal, Calculated from knudsen effusion weight loss | 0.000813 ± 5.1e-05
308.38 K, Crystal, Calculated from knudsen effusion weight loss | 0.000858 ± 5.4e-05
309.2 K, Crystal, Transpiration method | 0.00093 ± 6e-05
312.2 K, Crystal, Transpiration method | 0.00127 ± 8e-05
313.22 K, Crystal, Calculated from knudsen effusion weight loss | 0.00143 ± 0.00013
314.7 K, Crystal, Transpiration method | 0.00175 ± 0.00011
316.7 K, Crystal, Transpiration method | 0.0021 ± 0.00013
318.09 K, Crystal, Calculated from knudsen effusion weight loss | 0.00235 ± 0.00023
321.1 K, Crystal, Transpiration method | 0.00327 ± 0.0002
321.3 K, Crystal, Transpiration method | 0.00365 ± 0.00023
322.98 K, Crystal, Calculated from knudsen effusion weight loss | 0.00393 ± 0.00041
323.06 K, Crystal, Calculated from knudsen effusion weight loss | 0.00379 ± 0.0004
323.9 K, Crystal, Transpiration method | 0.00427 ± 0.00026
326.3 K, Crystal, Transpiration method | 0.00568 ± 0.00035
327.93 K, Crystal, Calculated from knudsen effusion weight loss | 0.00636 ± 0.00071
328 K, Crystal, Calculated from knudsen effusion weight loss | 0.0061 ± 0.00068
328.3 K, Crystal, Transpiration method | 0.00668 ± 0.00041
330.2 K, Crystal, Transpiration method | 0.00801 ± 0.00049
332.89 K, Crystal, Calculated from knudsen effusion weight loss | 0.01 ± 0.0012
332.93 K, Crystal, Calculated from knudsen effusion weight loss | 0.0105 ± 0.0012
333.2 K, Crystal, Transpiration method | 0.01064 ± 0.00065
336.3 K, Crystal, Transpiration method | 0.01422 ± 0.00087
337.4 K, Crystal, Transpiration method | 0.01727 ± 0.0011
337.82 K, Crystal, Calculated from knudsen effusion weight loss | 0.0155 ± 0.0019
339 K, Crystal, Transpiration method | 0.01833 ± 0.0011
345.2 K, Liquid, Transpiration method | 0.0319 ± 0.002
345.8 K, Liquid, Transpiration method | 0.0322 ± 0.002
347.8 K, Liquid, Transpiration method | 0.0376 ± 0.0023
350.9 K, Liquid, Transpiration method | 0.0457 ± 0.0028
353.9 K, Liquid, Transpiration method | 0.0564 ± 0.0035
355.4 K, Liquid, Transpiration method | 0.0612 ± 0.0037
357 K, Liquid, Transpiration method | 0.071 ± 0.0043
359.1 K, Liquid, Transpiration method | 0.0758 ± 0.0046
360.2 K, Liquid, Transpiration method | 0.089 ± 0.0055
362.1 K, Liquid, Transpiration method | 0.0992 ± 0.0061
363.1 K, Liquid, Transpiration method | 0.103 ± 0.0063
364.9 K, Liquid, Transpiration method | 0.1189 ± 0.0073
366.3 K, Liquid, Transpiration method | 0.1294 ± 0.0079
369.7 K, Liquid, Transpiration method | 0.16 ± 0.0098
372.2 K, Liquid, Transpiration method | 0.1866 ± 0.011
